Results published in publication PMC10566475, “A cell-active cyclic peptide targeting the Nrf2/Keap1 protein–protein interaction” (Chemical Science, 2023).
*1 amine or outer side, *2 acyl side, *3 side chain or, on linkers, in order; H or OH if unused. Where a SMILES comes first, the peptide text is derived from it. Bridges are numbered along the chain shown (N, C = ends). Roman numbers before positions name the chains, in order. [ ]: non-standard residue; d: D form. X3 = CCCCCCCCCCCCCCCCCC(=O)NCCCC[C@H](NC(=O)COCCOCCNC(=O)COCCOCCn1cc(COCCOCCNc2nc(CC[*:1])cc(CC[*:2])n2)nn1)C(=O)NCCOCCOCC(=O)NCCOCCOCC(N)=O; X2 = O=C(CCCCn1cc(COCCOCCNc2nc(CC[*:1])cc(CC[*:2])n2)nn1)[*:3]

Experiments:
BEAS-2B cells = assay: CellTiter Glo assay; conditions: P8-H tested up to 30 μM
Excerpt: performed according to manufacturer instruction and using BEAS-2B cells

[1] = test system: NQO1 gene expression in BEAS-2B cells (Homo sapiens); assay: BEAS-2B NQO1 assay (qPCR of NQO1 mRNA); format: cell-based; conditions: 24 h, concentrations of up to 10 μM
Excerpt: The effect of peptides on Nrf2-dependent gene expression was investigated in BEAS-2B cells, where we determined the upregulation of the mRNA of NAD(P)H quinone dehydrogenase (NQO1) by qPCR. The expression of NQO1 is Nrf2-dependent and it is one of the two major quinone reductases, which play a crucial role in protecting cells from oxidative stress.[40] ^§§ In the context of this study we chose BEAS-2B cells as a representative model for epithelial cells. The presence of serum has been reported to affect BEAS-2B cell phenotype. Specifically, exposure of BEAS-2B to FBS has been associated with squamous differentiation, alteration in cytokine secretion and response to toxicants.[42–44] […] In order to improve the cellular uptake, we took of advantage of the 2C-PS moiety, which not only allows the easy synthesis of a variety of macrocycles of different ring sizes, but also permits the facile introduction of a diverse set of moieties, which could enhance cell permeability. We pursued a diverse set of strategies to make the Keap1 peptide more cell permeable, namely: masking of the acidic amino acids with methyl esters, introduction of polyarginine peptides, GWWG-polyarginine peptides or a long-chain fatty acid tag onto the staple, as well as peptide shortening and a combination of these. The rationale behind these strategies is explained herein, and details of their synthesis can be found in the ESI. ^†
Cellular Biology Experimental
(Thermo Fisher Scientific, USA).
calculated using QunatStudio 7 software.

[2] = biological target: T1, human Keap1 Kelch domain (A321-T609) (Homo sapiens, UniProt Q14145); assay: Surface plasmon resonance (SPR) direct binding assay, immobilised Keap1 Kelch domain; conditions: Table 1
T1 construct: human Keap1 Kelch domain (A321-T609) fused with N-terminal 6x His-tag; 6xHis (N); made in house
Excerpt: (§1) We based the design of our Nrf2-like cyclic peptides around the amino acid sequence of the ETGE motif (namely 12-mer ^73[…]^84L) and SAR studies reported in the literature.[9,10,12,14] The […] motif is known to adopt a beta-turn conformation upon binding to Keap1. Residues Q73-Q75 and L85 stabilise the bound conformation, L76-D77 and E79-G81 bind deep into the pocket with E79 and E82 forming electrostatic interactions with Keap1 and D77 and T80 stabilising the beta-turn via H-bonds with E78 not contributing to the binding. […] The ability of the cyclic peptides to bind to the Kelch domain of Keap1 was evaluated using surface plasma resonance (SPR), where the Kelch domain is immobilised onto a SPR sensor chip. Additionally, we assessed the ability of the peptides to inhibit the PPI between Nrf2 and the Kelch domain of Keap1 using a time-resolved FRET (TR-FRET) assay. Here, the IC50 for inhibition of the interaction between the human Keap1 Kelch domain and an Nrf2-ETGE peptide is measured.
(§2) Surface Plasmon Resonance (SPR)
(§3) Peptide affinities to the Kelch domain of Keap1 is determined in a direct binding assay using 8K surface plasmon resonance (SPR) biosensor (Cytiva) at 20°C. Immobilization of Keap1 Kelch domain on a CM5 sensor chip (Cytiva) is performed using standard amine coupling procedure. The surface is washed with 10mM NaOH, 1M NaCl before activated with EDC/NHS (Cytiva), followed by immobilization of human Keap1 Kelch domain (A321-T609) fused with N-terminal 6x His-tag7 (in 10 mM MES, pH=6.4).
(§4) Finally, the surface is deactivated by Ethanolamine. Immobilization levels are typically 5000-6000 RU.
(§5) The reference spot is treated as described, omitting the injection of Keap1. Compound concentration series are injected over the immobilized protein in increasing concentrations using single cycle kinetics (SCK) in running buffer (10 mM HEPES, 150 mM NaCl, 0.05% Tween20, 1 mM TCEP, pH 7.4). A 1:1 Langmuir interaction model is fitted to the experimental traces, enabling determination of kon, koff and […]
(§6) In the time-resolved Förster resonance energy transfer (TR-FRET) assay8 the IC50 of inhibitors which […]
(§7) are determined. The TR-FRET is measured between a Tb-labelled mAb (Anti—6-His, Tb cryptate Gold, CisBio 61H12TLB) that binds to Keap 1 Kelch domain and d2-labelled SA-biotin-peptide.
(§8) The assay was performed in 384-well white low-volume, medium binding plates (Greiner Bio One, Austria) in 20 mM HEPES pH 7.5, 150 mM NaCl, 2 mM GSH (Sigma-Aldrich, USA),1mM EDTA (Sigma-Aldrich, USA), and 0.01% Pluronic F127 (MilliporeSigma, USA), with a final reaction volume of 10 µL.
(§9) To determine the ability of synthesized peptide to inhibit PPI between the Keap1 Kelch domain and Nrf2, 1nM purified human Keap1 Kelch domain (A321-T609) fused with N-terminal 6x His-tag, 5 nM biotinylated Nrf2 peptide ([…], Genescript, USA), d2-labeled streptavidin (Revvity, USA), and […] anti-His monoclonal antibody tagged with terbium cryptate (Revvity, USA), were incubated in the presence of varying concentrations of investigated peptides for 3 h at room […]
(§10) 7 Li X, Zhang D, Hannink M, Beamer LJ. Crystallization and initial crystallographic analysis of the Kelch domain from human Keap1. Acta
(§11) 8 S. Lee, D. Ali Abed, L. J. Beamer, L. Hu, Development of a Homogeneous Time-Resolved Fluorescence Resonance Energy Transfer (TR-

[3] = biological target: T2, interaction between the human Keap1 Kelch domain and an Nrf2-ETGE peptide (Homo sapiens, UniProt Q14145); assay: Keap1-Nrf2 TR-FRET (HTRF) assay; format: binding; conditions: Table 1; geometric mean ± sd of at least 3 independent repeats unless stated; read-out: TR-FRET IC50
T2 construct: 1nM purified human Keap1 Kelch domain (A321-T609) fused with N-terminal 6x His-tag; made in house
Excerpt: as §1, §2, §3, §4, §5, §6, §7, §8, §9, §10, §11
Following the incubation, the PHERAstar FSX […] microplate reader was used to measure the acceptor and donor emissions at 665 nm and 620 nm, respectively. The acceptor/donor ratio was used to calculate relative energy transfer. Data was normalized by two-point normalization using neutral and inhibitor controls (neutral control: DMSO, inhibitor control: 0.1nM 2-[[4-[carboxymethyl-(4-methoxyphenyl)sulfonylamino]naphthale n-1-yl]-(4-methoxyphenyl)sulfonylamino]acetic acid; […]
parameter logistic fit and IC50 values were calculated using Genedata screener software (Genedata, […]

[4] = single cycle kinetics, 1:1 Langmuir model

T1 sequence (Q14145 321-609): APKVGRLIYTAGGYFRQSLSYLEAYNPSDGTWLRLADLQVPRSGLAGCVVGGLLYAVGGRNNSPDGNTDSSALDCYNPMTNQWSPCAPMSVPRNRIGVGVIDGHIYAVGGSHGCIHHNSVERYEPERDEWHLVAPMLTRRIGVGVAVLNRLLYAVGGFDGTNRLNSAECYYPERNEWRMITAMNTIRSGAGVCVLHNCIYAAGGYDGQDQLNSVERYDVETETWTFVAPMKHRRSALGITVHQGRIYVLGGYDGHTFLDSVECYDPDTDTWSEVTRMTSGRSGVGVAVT
Chain of NQO1 gene expression in BEAS-2B cells (Homo sapiens) (Q14145 whole entry): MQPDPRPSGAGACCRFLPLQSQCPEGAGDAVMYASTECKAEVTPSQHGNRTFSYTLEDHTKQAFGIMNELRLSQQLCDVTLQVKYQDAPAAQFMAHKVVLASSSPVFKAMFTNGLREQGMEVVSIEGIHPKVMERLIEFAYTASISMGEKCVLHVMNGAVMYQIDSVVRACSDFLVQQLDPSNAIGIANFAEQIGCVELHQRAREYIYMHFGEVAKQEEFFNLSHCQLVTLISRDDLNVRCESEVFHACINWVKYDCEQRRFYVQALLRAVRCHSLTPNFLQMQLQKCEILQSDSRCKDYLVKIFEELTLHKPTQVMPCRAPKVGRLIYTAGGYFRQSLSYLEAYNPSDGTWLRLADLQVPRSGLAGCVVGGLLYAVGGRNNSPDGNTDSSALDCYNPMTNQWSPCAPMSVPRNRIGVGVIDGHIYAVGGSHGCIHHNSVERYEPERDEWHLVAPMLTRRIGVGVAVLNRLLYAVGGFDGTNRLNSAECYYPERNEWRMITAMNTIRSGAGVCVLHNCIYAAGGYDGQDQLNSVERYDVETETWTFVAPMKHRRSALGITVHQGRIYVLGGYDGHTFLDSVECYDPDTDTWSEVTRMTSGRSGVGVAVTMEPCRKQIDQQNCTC
T2 sequence (Q14145 321-609): as the sequence (Q14145 321-609) above

Row | Molecule | cytotoxicity in CellTiter Glo assay (BEAS-2B cells) | induction of NQO1 mRNA (Nrf2-dependent gene expression) [1] | other results
1 | CCCCCCCCCCCCCCCCCC(=O)NCCCC[C@H](NC(=O)COCCOCCn1cc(COCCOCCNc2nc3cc(n2)CCSC[C@@H](C(=O)N[C@@H](CC(C)C)C(N)=O)NC(=O)[C@H](CCC(=O)O)NC(=O)CNC(=O)[C@H]([C@@H](C)O)NC(=O)[C@H](CCC(=O)O)NC(=O)[C@@H]2CCCN2C(=O)[C@H](CC(=O)O)NC(=O)[C@@H](NC(C)=O)CSCC3)nn1)C(=O)NCCOCCOCC(=O)NCCOCCOCC(N)=O [Peptide P8-H] | no cytotoxicity | – | –
2 | CC(=O)N[C@H]1CSCCc2cc(nc(NCCOCCOCc3cn(CCCCC(=O)NCC(=O)N[C@@H](Cc4c[nH]c5ccccc45)C(=O)N[C@@H](Cc4c[nH]c5ccccc45)C(=O)NCC(=O)N[C@H](CCCNC(=N)N)C(=O)N[C@H](CCCNC(=N)N)C(=O)N[C@H](CCCNC(=N)N)C(N)=O)nn3)n2)CCSC[C@@H](C(=O)N[C@@H](CC(C)C)C(N)=O)NC(=O)[C@H](CCC(=O)O)NC(=O)CNC(=O)[C@H]([C@@H](C)O)NC(=O)[C@H](CCC(=O)O)NC(=O)[C@@H]2CCCN2C(=O)[C@H](CC(=O)O)NC(=O)[C@H](CC(C)C)NC(=O)[C@H](CCC(N)=O)NC(=O)[C@H](CC(C)C)NC1=O [Peptide P3-G] (I: Ac-CLQLDPETGECL-NH2 / II: GWWG[dR][dR][dR]-NH2; linker I:1-I:11-II:N via X2) | – | no activity was detected | –
3 | CC1(C)CC[C@]2(C(=O)O)CC[C@]3(C)[C@H](C(=O)C=C4[C@@]5(C)C=C(C#N)C(=O)C(C)(C)[C@@H]5CC[C@]43C)[C@@H]2C1 [Bardoxolone, reference compound] | cytotoxic | – | –
4 | CCCCCCCCCCCCCCCCCC(=O)NCCCC[C@H](NC(=O)COCCOCCNC(=O)COCCOCCn1cc(COCCOCCNc2nc3cc(n2)CCSC[C@@H](C(=O)N[C@@H](CC(C)C)C(N)=O)NC(=O)[C@H](CCC(=O)O)NC(=O)CNC(=O)[C@H]([C@@H](C)O)NC(=O)[C@H](CCC(=O)O)NC(=O)[C@@H]2CCCN2C(=O)[C@H](CC(=O)O)NC(=O)[C@H](CC(C)C)NC(=O)[C@H](CCC(N)=O)NC(=O)[C@H](CC(C)C)NC(=O)[C@@H](NC(C)=O)CSCC3)nn1)C(=O)NCCOCCOCC(=O)NCCOCCOCC(N)=O [Peptide P3-H] (Ac-CLQLDPETGECL-NH2; linker 1-11 via X3) | – | did not induce Nrf2-dependent gene expression | –
5 | Ac-LQLDPETGEFL-NH2 [reference compound] | – | did not lead to any induction | Kd ([2]; geometric mean ± sd of at least 3 independent repeats unless stated, 20°C): 52 ± 1.4 nM; koff [2, 4]: 0.0079 s⁻¹; kon [2, 4]: 170000 M⁻¹ s⁻¹; IC50 [3]: 5.3 ± 1.2 nM
6 | CC(=O)N[C@H]1CSCCc2cc(nc(NCCOCCOCc3cn(CCCCC(=O)NCC(=O)N[C@@H](Cc4c[nH]c5ccccc45)C(=O)N[C@@H](Cc4c[nH]c5ccccc45)C(=O)NCC(=O)N[C@H](CCCNC(=N)N)C(=O)N[C@H](CCCNC(=N)N)C(=O)N[C@H](CCCNC(=N)N)C(N)=O)nn3)n2)CCSC[C@@H](C(=O)N[C@@H](CC(C)C)C(N)=O)NC(=O)[C@H](CCC(=O)O)NC(=O)CNC(=O)[C@H]([C@@H](C)O)NC(=O)[C@H](CCC(=O)O)NC(=O)[C@@H]2CCCN2C(=O)[C@H](CC(=O)O)NC1=O [Peptide P8-G] | – | did not lead to any activity | –
